Test systems include SNB-19 CNS; SR leukemia; OVCAR-3 ovarian; OVCAR-5 ovarian; HCT-15 colon; SK-MEL-28 melanoma; COLO 205 colon; KM12 colon; UACC-62 melanoma; K-562 leukemia.
What all share (assay): NCI anticancer screen, dose series, 48 h

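Method: 48-hour compound exposure of cells in 96-well plates, five concentrations, linear interpolation of endpoints. Here, GI50 denotes the concentration required for 50% inhibition of growth. TGI: total growth inhibition.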 Bounds are passed on as bounds.

For `CCCCCCCCCCCCCCCCCCCCCC(=O)Nc1ccn(C2OC(CO)C(O)C2O)c(=O)n1` (stereo not drawn), the TGI with SNB-19 CNS was greater than 100 µM; in the assay on SR leukemia, 26.8 µM; in the assay on OVCAR-3 ovarian it was greater than 100 µM; in the assay with OVCAR-5 ovarian it was greater than 100 µM; in the assay with HCT-15 colon, greater than 100 µM; in the assay with SK-MEL-28 melanoma, greater than 100 µM. For the same molecule, the TGI in the assay with COLO 205 colon, in the assay on KM12 colon, in the assay on UACC-62 melanoma and with K-562 leukemia was greater than 100 µM each time.
With `CCCCN(Cc1ccc(F)cc1)c1ccc(CO)c(Cl)c1`, the GI50 in the assay with SNB-19 CNS is 14.3 µM; with SR leukemia it was 14.6 µM; in the assay with OVCAR-3 ovarian, 3.74 µM; in the assay with OVCAR-5 ovarian, 0.531 µM; with HCT-15 colon it was 13.4 µM; in the assay on SK-MEL-28 melanoma it was 14.8 µM. The GI50 is 14 µM in the assay on COLO 205 colon, 17.5 µM in the assay on KM12 colon, 0.903 µM with UACC-62 melanoma and 6.76 µM in the assay on K-562 leukemia. Moreover, the TGI in the assay on SNB-19 CNS stood at 27.7 µM; in the assay with SR leukemia it was 34.7 µM; in the assay with OVCAR-3 ovarian, 12.9 µM; with OVCAR-5 ovarian it was 2.9 µM; in the assay on HCT-15 colon, 28.5 µM; with SK-MEL-28 melanoma it was 28.4 µM. Moreover, the TGI in the assay on COLO 205 colon came to 27.2 µM; in the assay on KM12 colon, 33 µM; in the assay on UACC-62 melanoma, 4.84 µM; with K-562 leukemia, 29.6 µM.
`COc1ccc(C(C#N)NNc2nc(C)cc(=O)[nH]2)cc1OC` (stereo not drawn): the TGI in the assay on SR leukemia, in the assay with OVCAR-3 ovarian, in the assay on OVCAR-5 ovarian, in the assay on HCT-15 colon, with SK-MEL-28 melanoma and with COLO 205 colon was greater than 100 µM each time. Also, the TGI in the assay with KM12 colon, with UACC-62 melanoma and in the assay with K-562 leukemia was greater than 100 µM in each case.
Take `COc1cc(-c2cn(-c3ccc(Cl)cc3)c(C)c2C(=O)C(F)(F)F)cc(OC)c1OC`: the GI50 is greater than 100 µM in the assay on SNB-19 CNS; 4.92 µM with SR leukemia; greater than 100 µM with OVCAR-3 ovarian; greater than 100 µM in the assay with OVCAR-5 ovarian; greater than 100 µM with HCT-15 colon; greater than 100 µM in the assay on SK-MEL-28 melanoma. The GI50 was greater than 100 µM with COLO 205 colon, greater than 100 µM with KM12 colon, greater than 100 µM in the assay on UACC-62 melanoma and 22.7 µM in the assay with K-562 leukemia. The TGI in the assay with SNB-19 CNS, with SR leukemia, in the assay on OVCAR-3 ovarian, in the assay with OVCAR-5 ovarian, in the assay with HCT-15 colon and with SK-MEL-28 melanoma was greater than 100 µM each time. Also, the TGI with COLO 205 colon, in the assay with KM12 colon, in the assay on UACC-62 melanoma and in the assay with K-562 leukemia was greater than 100 µM in each case.
Regarding `CSc1nc2c(nc(N)n2C2OCC(O)C(O)C2O)c(=O)n1C` (stereo not drawn), the TGI with SNB-19 CNS, with SR leukemia, in the assay with OVCAR-3 ovarian, in the assay with SK-MEL-28 melanoma, in the assay on COLO 205 colon and in the assay with KM12 colon was greater than 100 µM throughout. Further, the TGI with UACC-62 melanoma and in the assay with K-562 leukemia was greater than 100 µM in each case.
`CO/N=C(\C)c1ccc(Nc2cc(-c3ccccc3)nc3c(O)cccc23)cc1`: the GI50 is 5.51 µM in the assay with SR leukemia; 16.4 µM in the assay on OVCAR-3 ovarian; 18.7 µM in the assay with OVCAR-5 ovarian; 16.2 µM in the assay on HCT-15 colon; 25.5 µM with SK-MEL-28 melanoma; 17.2 µM in the assay on COLO 205 colon. Also, the GI50 was 14.6 µM with UACC-62 melanoma and 11.6 µM in the assay with K-562 leukemia. The TGI in the assay with SR leukemia worked out at 34.7 µM; with OVCAR-3 ovarian, 32.4 µM; in the assay on OVCAR-5 ovarian, 33.4 µM; in the assay on HCT-15 colon, 32.5 µM; in the assay on SK-MEL-28 melanoma, 84.8 µM; in the assay with COLO 205 colon, 34.5 µM. In addition, the TGI in the assay on UACC-62 melanoma turned out to be 28.8 µM; in the assay on K-562 leukemia it was 60.4 µM.
On to `CC12CCC(=O)C=C1CCC1C2C(O)CC2(C)C(c3csc(N)n3)CCC12` (stereo not drawn), for which the TGI with SNB-19 CNS, in the assay on SR leukemia, with OVCAR-3 ovarian, in the assay on OVCAR-5 ovarian, with HCT-15 colon and in the assay with SK-MEL-28 melanoma was greater than 100 µM each time. Also, the TGI with COLO 205 colon, with KM12 colon, with UACC-62 melanoma and in the assay with K-562 leukemia was greater than 100 µM throughout.
Consider `CC(=O)n1c2ccccc2c2nc3nc(Oc4ccc(C)cc4)c4ccccc4c3cc21`, for which the TGI in the assay with SNB-19 CNS, in the assay with SR leukemia, with OVCAR-3 ovarian, in the assay with OVCAR-5 ovarian, in the assay on HCT-15 colon and in the assay on SK-MEL-28 melanoma was greater than 100 µM in each case. Further, the TGI in the assay with COLO 205 colon, in the assay on KM12 colon, in the assay with UACC-62 melanoma and with K-562 leukemia was greater than 100 µM throughout.
Take `CN(CCOc1ccc(C#N)cc1)CCOc1ccc(C#N)cc1`: the GI50 in the assay with SNB-19 CNS is greater than 100 µM; with SR leukemia, 5.21 µM; in the assay with OVCAR-3 ovarian it was 29.8 µM; in the assay with OVCAR-5 ovarian it was greater than 100 µM; in the assay on HCT-15 colon, 25.4 µM; in the assay with SK-MEL-28 melanoma it was greater than 100 µM. The GI50 in the assay with COLO 205 colon is greater than 100 µM; in the assay on KM12 colon it was 16.6 µM; with UACC-62 melanoma, greater than 100 µM; in the assay with K-562 leukemia it was 16.7 µM. Besides, the TGI in the assay with SNB-19 CNS is greater than 100 µM; in the assay with SR leukemia, 61 µM; in the assay with OVCAR-3 ovarian, greater than 100 µM; with OVCAR-5 ovarian, greater than 100 µM; in the assay on HCT-15 colon it was greater than 100 µM; in the assay on SK-MEL-28 melanoma, greater than 100 µM. The TGI with COLO 205 colon is greater than 100 µM; with KM12 colon, 66.2 µM; with UACC-62 melanoma, greater than 100 µM; with K-562 leukemia, greater than 100 µM.
On to `CN(C)CCCN1CCc2c([nH]c3ccccc23)C1c1cccnc1` (stereo not drawn), for which the TGI in the assay with SNB-19 CNS, in the assay on SR leukemia, with OVCAR-3 ovarian, in the assay with OVCAR-5 ovarian, in the assay with HCT-15 colon and with SK-MEL-28 melanoma was greater than 100 µM throughout. Moreover, the TGI in the assay with COLO 205 colon, with KM12 colon, in the assay with UACC-62 melanoma and in the assay on K-562 leukemia was greater than 100 µM throughout.

The record behind these values is PubChem BioAssay (NCI).
